Measured values as given in patent publication US5091539A, “Azolyl cycloalkanol derivatives and agricultural fungicides” (Shionogi & Co., Ltd., priority 1984, dated 1992).
Converted amounts (≈) assume the structure as drawn.

How the values were obtained:
[1] = test system: Rhizoctonia solani; assay: Control test to damping-off of cucumber (Rhizoctonia solani); format: in vivo; settings: 500 ppm, soil drench, 14 days
Description: (§1) (1) The fungus causing damping-off of cucumber seedlings, Rhizoctonia solani or Fusarium oxysporum was cultured on a wheat bran medium at 28° C. for 5 days, which was mixed with sterilized soil and cultured for 2 days to prepare the inoculum. Sterilized soil (150 g) was put into a pot of 9 cm in diameter. The surface of the spot was covered with the above inoculum. […] Twenty cucumber seeds (Cultivar: Matsukaze) were sown 2 days after. The pots were kept at 30°±2° C. for 14 days. The infection was observed 14 days after and disease degree and percent disease degree were obtained by setting an evaluation index for each disease sympton.
(§2) (2) Evaluation [formula] wherein a: number of seeds without germination b: number of seedlings showing damping-off c: number of wilted seedlings d: number of seedlings being a little brownish in cotyledons or at the bottom of the stem e: number of uninfected seedlings [formula] wherein a: number of seeds without germination or seedlings with damping-off b: number of wilted seedlings c: number of seedlings being a little brownish in cotyledons or at the bottom of the stem d: number of uninfected seedlings [formula]

[2] = test system: Fusarium oxysporum; assay: Control test to damping-off of cucumber (Fusarium oxysporum); format: in vivo; settings: soil drench, 14 days
Description: as §1, §2

[3] = test system: Sphaerotheca fuliginea; assay: Control test to powdery mildew of cucumber (foliar and soil treatment); format: in vivo; settings: for Foliar Treatment, Curative Effect / Foliar Treatment, Protective Effect / Soil Treatment, Protective Effect: index 0-10
Description: (1) Seeds of cucumber (Cultivar: Matsukaze) were sown in a pot of 9 cm in diameter and the pots were kept in a green house until the plant was grown for 2-3 leaf stage. The first leaf was sprayed with, (i) 3 ml each of solutions containing the test compound at the prescribed concetrations and dried by the air (foliar treatment). Inoculation of spore suspension of Sphaerotheca fuliginea by spraying was practised 2 days before the treatment (curative effect) or 1 day after the treatment (protective effect). Alternatively, (ii) 5 ml of the solution was applied at the root of the seedlings (soil treatment). The pots were kept in a greenhouse for 2 days and inoculation was practised in the same manner noted above. (iii) After sprayed with 3 ml of a solution of the test compound at a concentration of 125 ppm and dried by the air, the treated pots were set in a greenhouse. Untreated pots were placed next to the treated pots. Those treated and untreated plants were inoculated with spore suspension. Protective effect of the test compounds by vapor was thus checked. The effect was examined 14 days after the inoculation of the spores.
0: Disease sign is observed on the whole leaf.
3: Disease sign is observed on the leaf in about 50%.
5: Disease sign is observed on the leaf in about 30%.
7: Disease sign is observed on the leaf in about 20%.
9: a little disease sign is observed.
(§3) (1) Test methods and evaluation are the same as those in Tests 2, 4 and 6.

[4] = test system: Alternaria kikuchiana; assay: Anti-fungal activity in vitro; format: cell-based; settings: 48 h, GY medium, 28° C., 2 days, spore suspension
Description: (§4) (1) Each test compound was diluted by two-fold dilution with GY medium (2% glucose and 0.4% yeast extract) containing 0.01% Tween 80 (trademark). Every diluted solution was inoculated with spore suspension (10^5-5 spores/ml) of Alternaria kikuchiana or a hyphae disk with agar (4 mm in diameter) of other fungi and incubated at 28° C. for 2 days.

[5] = test system: Cochiobolus sativus; assay: Anti-fungal activity in vitro; format: cell-based; settings: 48 h; GY medium, 28° C., 2 days
Description: as §4

[6] = test system: Corticium rolfsii; assay: Anti-fungal activity in vitro; format: cell-based; settings: Agroathelia rolfsii, 48 h; GY medium, 28° C., 2 days
Description: as §4

[7] = test system: Diaporthe citri; assay: Anti-fungal activity in vitro; format: cell-based; settings: 48 h, GY medium, 28° C., 2 days
Description: as §4

[8] = test system: Monilinia fructicola; assay: Anti-fungal activity in vitro; format: cell-based; settings: 48 h, GY medium, 28° C., 2 days
Description: as §4

[9] = test system: Pyrenophora graminea; assay: Anti-fungal activity in vitro; format: cell-based; settings: 48 h, GY medium, 28° C., 2 days
Description: as §4

[10] = test system: Ustilago nuda; assay: Anti-fungal activity in vitro; format: cell-based; settings: 48 h, GY medium, 28° C., 2 days
Description: as §4

[11] = test system: Vasla ceratosperma; assay: Anti-fungal activity in vitro; format: cell-based; settings: 48 h; GY medium, 28° C., 2 days
Description: as §4

[12] = test system: Botrytis cinerea; assay: Control test of Botrytis rot (gray mold) of cucumber; format: in vivo
Description: (1) Seedlings of cucumber (Cultivar: Matsukaze) were planted in a pot of 9 cm in diameter. The first leaf was sprayed with 3 ml each of solutions containing the test compound at the concentration of 125 or 31.3 ppm and the plant was dried by the air. After inoculation of the spores of Botrytis cinerea, the plants were kept at 20°±2° C. and 90-100% humidity ((i) protective spraying). Alternatively, the spores were inoculated at first and when the leaves suffered a little (about 2 days after), the solutions of the test compounds were sprayed ((ii) curative spraying). Evaluation was practised 3 days after the inoculation. Percent disease control was calculated by the ratio of diameter of diseased area in treated and untreated plants.
as §3

[13] = test system: Sclerotinia sclerotiorum; assay: Control test to Sclerotinia rot of cucumber; format: in vivo
Text: (1) This test was practised in the same manner as in the above test, control test of Botrytis rot (gray mold) of cucumber, except for using the mycelium of Sclerotinia sclerotiorum as inoculm. The same as in test 2.

[14] = test system: Cladosporium herbarum; assay: Anti-fungal activity in vitro; format: cell-based; settings: 48 h, GY medium, 28° C., 2 days
Description: as §4

## O[C@@]1(c2sc(Cl)c(Cl)c2Cl)CCCC[C@H]1n1cncn1 (relative stereo) [Compound 12, cis-1-(3,4,5-trichloro-2-thienyl)-2-(1,2,4-triazol-1-yl)cyclohexanol]
[1]
  Disease Degree: 0
  Percent Disease Control: 100%
[2]; 500 ppm
  Disease Degree: 17
  Percent Disease Control: 83%
[3]; first Table 4, 125 ppm, foliar, 14 days
  Protective Index, Foliar Treatment: 10
[3]; first Table 4, 125 ppm, soil, 14 days
  Protective Index, Soil Treatment: 10
[4]
  MIC: 25 µg/mL (≈ 70.9 µM)
[5]
  MIC: 3.13 µg/mL (≈ 8.88 µM)
[6]
  MIC: 1.56 µg/mL (≈ 4.42 µM)
[7]
  MIC: 3.13 µg/mL (≈ 8.88 µM)
[8]
  MIC: 1.56 µg/mL (≈ 4.42 µM)
[9]
  MIC: 6.25 µg/mL (≈ 17.7 µM)
[10]
  MIC: 6.25 µg/mL (≈ 17.7 µM)
[11]
  MIC: 3.13 µg/mL (≈ 8.88 µM)

## O=C1C2CC=CCC2C(=O)N1SC(Cl)(Cl)Cl (centres unmarked) [Captan, reference compound]
[2]; 800 ppm
  Disease Degree: 0
  Percent Disease Control: 100%

## O[C@@]1(c2ccc(Cl)cc2)CCCCC[C@H]1n1cncn1 (relative stereo) [Compound 24, cis-1-(4-chlorophenyl)-2-(1,2,4-triazol-1-yl)cycloheptanol]
[12]; Table 2, 31.3 ppm
  Percent Disease Control, Curative Spraying: 86%
  Percent Disease Control, Protective Spraying: 100%
[12]; Table 2, 125 ppm
  Percent Disease Control, Curative Spraying: 94%
  Percent Disease Control, Protective Spraying: 100%
[13]; 31.3 ppm
  Percent Disease Control, Curative Spraying: 96%
  Percent Disease Control, Protective Spraying: 100%
[13]; 125 ppm
  Percent Disease Control, Curative Spraying: 97%
  Percent Disease Control, Protective Spraying: 100%
[3]; second Table 4, 0.5 ppm
  Foliar Treatment, Curative Effect: 10
  Foliar Treatment, Protective Effect: 5 (Disease sign is observed on the leaf in about 30%.)
  Soil Treatment, Protective Effect: 0
[3]; second Table 4, 2.0 ppm
  Foliar Treatment, Curative Effect: 10
  Foliar Treatment, Protective Effect: 10
  Soil Treatment, Protective Effect: 0
[3]; second Table 4, 7.8 ppm
  Foliar Treatment, Curative Effect: 10
  Foliar Treatment, Protective Effect: 10
  Soil Treatment, Protective Effect: 10
[3]; second Table 4, 31.3 ppm
  Foliar Treatment, Curative Effect: 10
  Foliar Treatment, Protective Effect: 10
  Soil Treatment, Protective Effect: 10
[4]
  MIC: 12.5 µg/mL (≈ 42.8 µM)
[14]
  MIC: 6.25 µg/mL (≈ 21.4 µM)
[5]
  MIC: 6.25 µg/mL (≈ 21.4 µM)
[6]
  MIC: 50 µg/mL (≈ 171 µM)
[7]
  MIC: 25 µg/mL (≈ 85.7 µM)
[8]
  MIC: 0.2 µg/mL (≈ 0.685 µM)
[9]
  MIC: 12.5 µg/mL (≈ 42.8 µM)
[10]
  MIC: 1.56 µg/mL (≈ 5.35 µM)
